Patent US4927819A, “Cyclo-octane neuroprotective agents” (Merck Sharp & Dohme Limited, priority 1987, dated 1990)
Counter-ions that a name gives are not always drawn.

system: responses to NMDA in rat cortical slice; assay: Rat cortical slice: antagonism of responses to NMDA; type: cell-based; settings: from righthand shift in NMDA concentration-response curve, read-out: apparent equilibrium constant (Kb)
Procedure: The effects of compounds of the invention on responses to NMDA were assessed using the rat cortical slice as described by Wong et al., Proc. Natl. Acad. Sci. USA, 1986, 83, 7104. The apparent equilibrium constant (Kb) was calculated from the righthand shift in the NMDA concentration-response curve produced by the compound under test.

| SMILES | Kb [µM] |
| --- | --- |
| CC12Cc3ccc(O)cc3CC(N1)c1ccccc12 (stereo not drawn) [Example 13, 2-Hvdroxy-6-methyl-5,6,11,12-tetrahydrodibenzo[a,e]cycloocten-6.11-imine hydrochloride] | < 2 |
| COc1ccc2c(c1)CC1NC(C)(C2)c2ccccc21 (stereo not drawn) [Example 12, 2-Methoxy-6-methyl-5,6,11,12-tetrahydrodibenzo [a,e]cycloocten-6,11-imine hydrochloride] | < 2 |

system: tonic seizures induced by N-methyl-DL-aspartic acid (NMDLA) in male Swiss-Webster mice; assay: Antagonism of NMDLA-induced tonic seizures in mice; type: in vivo, mouse (Swiss-Webster); settings: iv; mouse, i.v. test compound 15 min before s.c. NMDLA 500 mg/kg; observed 30 min; probit analysis
Procedure: Compounds of the invention were examined for their ability to antagonise tonic seizures induced by N-methyl-DL-aspartic acid (NMDLA). Groups of 8 male Swiss-Webster mice (25 to 30 g) were injected intravenously with the test compound at various doses, 15 min before s.c. administration of NMDLA (500 mg/kg). […] ED50 values for the antagonism of the NMDLA induced tonic seizures were determined using probit analysis.

| SMILES | ED50 [mg/kg] |
| --- | --- |
| CC12Cc3ccccc3CC(C)(N1)c1ccccc12 [Example 16, 6,11-Dimethyl-5,6,11,12-tetrahydrodibenzo[a,e]cycloocten-6,11-imine hydrochloride] | < 5 |
| CC12Cc3ccc(Br)cc3CC(N1)c1ccccc12 (stereo not drawn) [Example 3, 2-Bromo-6-methyl-5,6,11,12-tetrahydrodibenzo[a,e]cycloocten-6.11-imine hydrochloride] | < 5 |
| CC12Cc3ccccc3CC(O)(N1)c1ccccc12 (stereo not drawn) [Example 15, 11-Hydroxy-6-methyl-5,6,11,12-tetrahydrodibenzo[a,e]cycloocten-6,11-imine hydrochloride] | < 5 |
| CC12Cc3ccccc3CC(N1)c1ccccc12 (stereo not drawn) [Example 1, 6-Methyl-5,6,11,12-tetrahydrodibenzo[a,e]cycloocten-6,11-imine Hydrochloride] | < 5 |
